Reference: patent US8193192B2, “Heterocyclic FXR binding compounds” (Phenex Pharmaceuticals AG, priority 2006, dated 2012)

Tests used:
[1] = PAMPA permeability assay; type: in vitro ADME; settings: % of compound found in the receiver compartment after 16 hours; PBS pH 7.4, 5% DMSO, 23° C.
Protocol: Artificial membrane permeability was determined as follows: Tested compounds were dissolved to 10 mM in 100% DMSO. Permeability of compounds was measured in PBS (pH 7.4), 5% DMSO at 23° C. Safire (Tecan) plate reader was used for measurement the UV/Vis absorption. Protocol: Dilute stocks of tested compounds and controls with PBS to 1.67 mM and mix well by pipetting, add 280 μl of PBS, 5% DMSO to acceptor plate, add 5 μl of 2% L-α-Phosphatidylcholine suspension in dodecane to the membrane of donor plate. Immediately add 98 μl of PBS to donor plate and make the sandwich with acceptor plate. Add 42 μl of tested compounds and controls dilutions to […], cover the plate, place into camera and incubate for 16 hours. Make the equilibrium plate, add 225 μl of PBS, 3.7% DMSO and 25 μl of tested compounds and controls dilutions to UV plate. After 16 hours pull the donor plate out and transfer 250 μl from acceptor plate to UV plate. Scan UV plate on Safire (Tecan) plate reader from […]. Permeability is reported in % of compound found in the receiver compartment after the incubation period. Applying this protocol, PAMPA permeabilities of examples and reference compounds were determined as follows (see Table 4): […]

[2] = target: T1, human farnesoid X receptor (FXR) alpha ligand binding domain (Homo sapiens, UniProt Q96RI1); experiment: FRET activity assay (ligand mediated cofactor peptide interaction, LANCE); type: biochemical; settings: FXR-LBD/SRC-1 peptide interaction
T1 construct: made in house; host or cells: E. coli BL21(DE3), vector pDEST15
T1 sequence (Q96RI1 187-472 isoform Q96RI1-2): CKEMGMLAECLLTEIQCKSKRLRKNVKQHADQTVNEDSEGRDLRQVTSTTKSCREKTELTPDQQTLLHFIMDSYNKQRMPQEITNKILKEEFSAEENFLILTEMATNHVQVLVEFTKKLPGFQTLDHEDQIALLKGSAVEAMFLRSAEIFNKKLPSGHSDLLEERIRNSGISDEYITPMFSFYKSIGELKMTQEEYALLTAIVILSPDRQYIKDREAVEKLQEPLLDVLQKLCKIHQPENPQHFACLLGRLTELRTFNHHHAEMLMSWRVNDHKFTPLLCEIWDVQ
Protocol: Determination of a ligand mediated cofactor peptide interaction to quantify ligand binding to the nuclear receptor Farnesoid X Receptor (FXR) was performed as follows:
Preparation of human farnesoid X receptor (FXR) alpha ligand binding domain: The human FXRalpha ligand binding domain (LBD) was expressed in E. coli strain BL21(DE3) as an N-terminally glutathione-S-transferase (GST) tagged fusion protein. The DNA encoding the FXR ligand binding domain was cloned into vector pDEST15 (Invitrogen). Expression was under control of an IPTG inducible T7 promoter. The amino acid boundaries of the ligand binding domain were amino acids 187-472 of Database entry NM_005123 (RefSeq). Expression and purification of the FXR-LBD: An overnight preculture of a transformed E. coli strain was diluted 1:20 in LB-Ampicillin medium and grown at 30° C. to an optical density of OD600=0.4-0.6. Gene expression was then induced by addition of 0.5 mM IPTG. Cells were incubated an additional 6 h at 30° C., 180 rpm. Cells were collected by centrifugation (7000×g, 7 min, room temperature). Per liter of original cell culture, cells were resuspended in 10 ml lysis buffer (50 mM Glucose, 50 mM Tris pH 7.9, 1 mM EDTA and 4 mg/ml lysozyme) and left on ice for 30 min. Cells were then subjected to sonication and cell debris removed via centrifugation (22000×g, 30 min, 4° C.). Per 10 ml of supernatant 0.5 ml prewashed Glutathione 4B sepharose slurry (Qiagen) was added and the suspension kept slowly rotating for 1 h at 4° C. Glutathione 4B sepharose beads were pelleted by centrifugation (2000 g, 15 sec, 4° C.) and washed twice in wash buffer (25 mM Tris, 50 mM KCl, 4 mM MgCl2 and 1 M NaCl). The pellet was resuspended in 3 ml elution buffer per liter of original culture (elution buffer: 20 mM Tris, 60 mM KCl, 5 mM MgCl2 and 80 mM glutathione added immediately prior to use as powder). The suspension was left rotating for 15 min at 4° C., the beads pelleted and eluted again with half the volume of elution buffer than the first time. The eluates were pooled and dialysed overnight in 20 mM Hepes buffer (pH 7.5) containing 60 mM KCl, 5 mM MgCl2 as well as 1 mM dithiothreitol and 10% (v/v) glycerol. The protein was analysed by SDS-Page.
The method measures the ability of putative ligands to modulate the interaction between the purified bacterial expressed FXR ligand binding domain (LBD) and a synthetic biotinylated peptide based on residues 676-700 of SRC-1 (LCD2, 676-700). The sequence of the peptide used was B-[…]-COOH where the N-terminus was biotinylated (B). The ligand binding domain (LBD) of FXR was expressed as fusion protein with GST in BL-21 cells using the vector pDEST15. Cells were lysed by sonication, and the fusion proteins purified over glutathione sepharose (Pharmacia) according to the manufacturers instructions. […] For ease of handling and reduction of background from compound fluorescence LANCE technology makes use of generic fluorophore labels and time resolved detection Assays were done in a final volume of 25 μl in a 384 well plate, in a Tris-based buffer (20 mM Tris-HCl pH 7.5; 60 mM KCl, 5 mM MgCl2; 35 ng/μl BSA), containing 20-60 ng/well recombinantly expressed FXR-LBD fused to GST, 200-600 nM N-terminally biotinylated peptide, representing SRC1 aminoacids 676-700, 200 ng/well Streptavidin-xIAPC conjugate (Prozyme) and 6-10 ng/well Eu W1024-antiGST (Perkin Elmer). […]

PAMPA Permeability [1] [%] | EC50 [2] [nM] | SMILES
32 |  | CC(C)c1onc(-c2c(Cl)cccc2Cl)c1COc1ccc(Oc2ccc(C(=O)O)cc2)cc1 [Compound A, reference compound]
 | ≤ 1000 | Cc1cc(OCc2c(-c3c(Cl)cccc3Cl)noc2C(C)C)cnc1Oc1ccc(C(=O)O)cc1 [Example 3, 4-(5-((3-(2,6-Dichlorophenyl)-5-isopropylisoxazol-4-yl)methoxy)-3-methylpyridin-2-yloxy)benzoic acid]
